Test results reported in patent US11390631B1, “Benzodiazepine derivatives as RSV inhibitors” (priority 2015, dated 2022).

Columns and labels:
[1] = Cytotoxicity on parallel plate without virus, ATPlite readout; assay type: cell-based; details: human, Hep-2 cells (no virus), Hep-2 cells without virus, 5-day incubation
Experimental: Following extensive parameter testing, the final assay is run as follows: Hep-2 cells are seeded into the inner 60 wells of a 96-well plate at 8,000 cells per well in a volume of 50 μL using Growth Media (DMEM without phenol red, 1% L-Glut, 1% Penn/Strep, 1% nonessential amino acids, 10% heat-inactivated FBS). 2-fold serial dilutions of control and test compounds are added to the wells in duplicate in a total volume of 25 μL. Viral stock is then added to the wells at a multiplicity of infection (MOI) of 0.1 in a volume of 25 μL, bringing the total volume of each well to 100 μL. The MOI is calculated using the PFU/mL, or TCID50 if unavailable. Each 96-well plate has a control column of 6 wells with cells and virus but no compound (negative control, max CPE), a column with cells but no compound or virus (positive control, minimum CPE), and a column with no cells or virus or compound (background plate/reagent control). The control wells with cells but no virus are given an additional 25 uL of growth media containing an equal quantity of sucrose as those wells receiving the viral stock in order to keep consistent in media and volume conditions. The outer wells of the plate are filled with 125 μL of moat media (DMEM, 1% Penn/Strep) to act as a thermal and evaporative moat around the test wells. Following a 5-day incubation period, the plates are read using ATPlite (50 uL added per well), which quantifies the amount of ATP (a measure of cell health) present in each well. Assay plates are read using the Envision luminometer. In parallel, cytotoxicity is examined on an additional 96-well plate treated in an identical manner, but substituting the 25 μL of viral stock for 25 μL of growth media. […] EC50 ranges are as follows: A<0.4 μM; B 0.4-0.8 μM; C>0.8 μM and CC50 ranges are as follows: A>50 μM; B 10-50 μM; C<10 μM.

[2] = system: Human RSV-A (“Long” strain); assay: RSV-A assay: inhibition of cytopathic effect in Hep-2 cells, ATPlite readout; assay type: cell-based, Human respiratory syncytial virus (HRSV); details: human respiratory syncytial virus, HEp-2, 120 h, read-out: Human RSV-A (“Long” strain) EC50
Outline: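 Hep-2 cells (8,000/well) were infected with RSV-A Long at MOI 0.1 alongside duplicate 2-fold compound dilutions. After 5 days, cell viability was read by ATPlite luminescence to give EC50. CC50 came from a parallel plate without virus.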

Row | SMILES | CC50 at 5 days [1] | EC50 [2]
1 | COc1ccc(-c2nnc(NC3N=C(c4ccccc4)c4ccccc4NC3=O)o2)nc1 (centres unmarked) [Example 51] | > 50 µM | 0.4 to 0.8 µM
2 | COc1cccc(-c2nnc(NC3N=C(c4ccccc4)c4ccccc4NC3=O)o2)n1 (centres unmarked) [Example 52] | > 50 µM | < 0.4 µM
3 | O=C1Nc2ccccc2C(c2ccccc2)=NC1Nc1nnc(-c2ccc(F)nc2)o1 (centres unmarked) [Example 53] | > 50 µM | 0.4 to 0.8 µM
4 | COc1ccc(-c2nnc(NC3N=C(c4ccccc4)c4ccccc4NC3=O)o2)cn1 (centres unmarked) [Example 54] | > 50 µM | < 0.4 µM
5 | O=C1Nc2ccccc2C(c2ccccc2)=NC1Nc1nnc(-c2ccnc(F)c2)o1 (centres unmarked) [Example 55] | > 50 µM | < 0.4 µM
6 | COc1ccnc(-c2nnc(NC3N=C(c4ccccc4)c4ccccc4NC3=O)o2)c1 (centres unmarked) [Example 57] | > 50 µM | > 0.8 µM
7 | O=C1Nc2ccccc2C(c2ccccc2)=NC1Nc1nnc(-c2cnccn2)o1 (centres unmarked) [Example 58] | > 50 µM | > 0.8 µM
8 | O=C1Nc2ccccc2C(c2ccccc2)=NC1Nc1nnc(-c2ncccn2)o1 (centres unmarked) [Example 59] | > 50 µM | > 0.8 µM
9 | O=C1Nc2ccccc2C(c2ccccc2)=NC1Nc1nnc(-c2cncnc2)o1 (centres unmarked) [Example 60] | > 50 µM | > 0.8 µM
10 | O=C1Nc2ccccc2C(c2ccccc2)=NC1Nc1nnc(-c2ccncc2)o1 (centres unmarked) [Example 61] | > 50 µM | 0.4 to 0.8 µM
11 | O=C1Nc2ccccc2C(c2ccccc2)=NC1Nc1nnc(-c2cccnn2)o1 (centres unmarked) [Example 62] | > 50 µM | > 0.8 µM
12 | O=C1Nc2ccccc2C(c2ccccc2)=NC1Nc1nnc(-c2ccncn2)o1 (centres unmarked) [Example 63] | > 50 µM | > 0.8 µM
13 | COCc1cccc(-c2nnc(NC3N=C(c4ccccc4)c4ccccc4NC3=O)o2)n1 (centres unmarked) [Example 64] | > 50 µM | > 0.8 µM
14 | Cn1nccc1-c1nnc(NC2N=C(c3ccccc3)c3ccccc3NC2=O)o1 (centres unmarked) [Example 65] | > 50 µM | > 0.8 µM
15 | Cn1cc(-c2nnc(NC3N=C(c4ccccc4)c4ccccc4NC3=O)o2)cn1 (centres unmarked) [Example 66] | > 50 µM | 0.4 to 0.8 µM
16 | Cn1ccnc1-c1nnc(NC2N=C(c3ccccc3)c3ccccc3NC2=O)o1 (centres unmarked) [Example 67] | > 50 µM | > 0.8 µM
17 | Cn1cnc(-c2nnc(NC3N=C(c4ccccc4)c4ccccc4NC3=O)o2)c1 (centres unmarked) [Example 68] | > 50 µM | > 0.8 µM
18 | O=C1Nc2ccccc2C(c2ccccc2)=NC1Nc1nnc(-c2nccs2)o1 (centres unmarked) [Example 69] | > 50 µM | > 0.8 µM
19 | O=C1Nc2ccccc2C(c2ccccc2)=NC1Nc1nnc(-c2ncco2)o1 (centres unmarked) [Example 70] | > 50 µM | > 0.8 µM
20 | Cc1ccc(-c2nnc(NC3N=C(c4ccccc4)c4ccccc4NC3=O)o2)o1 (centres unmarked) [Example 71] | > 50 µM | > 0.8 µM
21 | COCc1ccc(-c2nnc(NC3N=C(c4ccccc4)c4ccccc4NC3=O)o2)o1 (centres unmarked) [Example 72] | > 50 µM | > 0.8 µM
22 | CN(C)Cc1ccc(-c2nnc(NC3N=C(c4ccccc4)c4ccccc4NC3=O)o2)o1 (centres unmarked) [Example 73] | > 50 µM | > 0.8 µM
23 | Cc1cc(-c2nnc(NC3N=C(c4ccccc4)c4ccccc4NC3=O)o2)on1 (centres unmarked) [Example 74] | > 50 µM | > 0.8 µM
24 | O=C1Nc2ccccc2C(c2ccccc2)=NC1Nc1nnc(-c2cnco2)o1 (centres unmarked) [Example 75] | > 50 µM | > 0.8 µM
25 | O=C1Nc2ccccc2C(c2ccccc2)=NC1Nc1nnc(-c2cncs2)o1 (centres unmarked) [Example 76] | > 50 µM | > 0.8 µM

Row | SMILES | CC50 at 5 days [1] | EC50 [2]
26 | O=C1Nc2ccccc2C(c2ccccc2)=NC1Nc1nnc(-c2cscn2)o1 (centres unmarked) [Example 77] | > 50 µM | 0.4 to 0.8 µM
27 | O=C1Nc2ccccc2C(c2ccccc2)=NC1Nc1nnco1 (centres unmarked) [Example 79] | > 50 µM | > 0.8 µM
28 | O=C1Nc2ccccc2C(c2ccccc2)=NC1Nc1nnc(-c2ccc(F)cc2)s1 (centres unmarked) [Example 80] | > 50 µM | > 0.8 µM
29 | O=C1Nc2ccccc2C(c2ccccc2)=NC1Nc1nnc(-c2ccccc2)s1 (centres unmarked) [Example 81] | > 50 µM | > 0.8 µM
30 | N#Cc1ccc(-c2nnc(NC3N=C(c4ccccc4)c4ccccc4NC3=O)s2)cc1 (centres unmarked) [Example 82] | > 50 µM | 0.4 to 0.8 µM
31 | O=C1Nc2ccccc2C(c2ccccc2)=NC1Nc1nnc(-c2ccncc2)s1 (centres unmarked) [Example 83] | > 50 µM | > 0.8 µM
32 | O=C1Nc2ccccc2C(c2ccccc2)=NC1Nc1ncc(-c2ccccc2)o1 (centres unmarked) [Example 84] | 10 to 50 µM | > 0.8 µM
33 | O=C1Nc2ccccc2C(c2ccccc2)=NC1Nc1nnc(-c2ccccc2)[nH]1 (centres unmarked) [Example 86] | > 50 µM | > 0.8 µM
34 | O=C1Nc2ccccc2C(c2ccccc2)=NC1Nc1nc(-c2ccccc2)ns1 (centres unmarked) [Example 87] | 10 to 50 µM | > 0.8 µM
35 | O=C1Nc2ccccc2C(c2ccccc2)=NC1Nc1nc(N2CCOCC2)ns1 (centres unmarked) [Example 88] | 10 to 50 µM | > 0.8 µM
36 | O=C1Nc2ccccc2C(c2ccccc2)=NC1Nc1nc(-c2ccccc2)no1 (centres unmarked) [Example 89] | 10 to 50 µM | > 0.8 µM
37 | O=C1Nc2ccccc2C(c2ccccc2)=NC1Nc1nc(-c2ccccc2)cs1 (centres unmarked) [Example 90] | < 10 µM | > 0.8 µM
38 | O=C1Nc2ccccc2C(c2ccccc2)=NC1Nc1cc(-c2ccccc2)ncn1 (centres unmarked) [Example 92] | 10 to 50 µM | > 0.8 µM
39 | O=C1Nc2ccccc2C(c2ccccc2)=NC1Nc1cc(N2CCOCC2)ncn1 (centres unmarked) [Example 93] | 10 to 50 µM | > 0.8 µM
40 | O=C1Nc2ccccc2C(c2ccccc2)=NC1Nc1cc(Oc2ccccc2)ncn1 (centres unmarked) [Example 94] | 10 to 50 µM | > 0.8 µM
41 | O=C1Nc2ccccc2C(c2ccccc2)=NC1Nc1ccnc(-c2ccccc2)n1 (centres unmarked) [Example 96] | 10 to 50 µM | > 0.8 µM
42 | O=C1Nc2ccccc2C(c2ccccc2)=NC1Nc1cccn(Cc2ccccc2)c1=O (centres unmarked) [Example 97] | > 50 µM | > 0.8 µM
43 | O=C1Nc2ccccc2C(c2ccccc2)=NC1Nc1nc2ccc(Cl)cc2o1 (centres unmarked) [Example 99] | 10 to 50 µM | > 0.8 µM
44 | O=C1Nc2ccccc2C(c2ccccc2)=NC1Nc1nc2ccccc2o1 (centres unmarked) [Example 100] | 10 to 50 µM | > 0.8 µM
45 | O=C1Nc2ccccc2C(c2ccccc2)=NC1Nc1nc2ccccc2s1 (centres unmarked) [Example 101] | 10 to 50 µM | > 0.8 µM
46 | O=C1Nc2ccccc2C(c2ccccc2)=NC1Nc1nc2ccc(F)cc2o1 (centres unmarked) [Example 103] | 10 to 50 µM | > 0.8 µM
47 | O=C1Nc2ccccc2C(c2ccccc2)=NC1Nc1nc2cc(F)ccc2o1 (centres unmarked) [Example 104] | 10 to 50 µM | > 0.8 µM
48 | O=C1Nc2ccccc2C(c2ccccc2)=NC1Nc1nc2c(F)cccc2o1 (centres unmarked) [Example 105] | > 50 µM | > 0.8 µM
49 | Cc1ccc2oc(NC3N=C(c4ccccc4)c4ccccc4NC3=O)nc2c1 (centres unmarked) [Example 106] | < 10 µM | > 0.8 µM
